Measurements reported in patent US12503452B2 (Curza Global, LLC, priority 2019, dated 2025).
Where a name gives a salt, the structure may show the parent alone. Read-outs that look alike come from different tables or passages of the source.

Columns and labels:
[1] = system: E. coli S30 extract (bacterial protein synthesis); assay: E. coli S30 extract coupled transcription-translation luciferase assay (inhibition of bacterial protein synthesis); assay type: biochemical; settings: read-out: S30 IC50 (μM/% inhib.)
How it was run: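 Cell-free coupled transcription-translation in E. coli S30 circular-DNA extract, with pBESTluc plasmid as template and complete amino acid mix. Eight 2-fold compound dilutions were incubated with the extract 1 h at 37 °C, chilled, then luciferase luminescence was read. % inhibition was taken relative to no-inhibitor wells; no-DNA wells gave background.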

[2] = target: Rabbit Reticulocyte Lysate (eukaryotic protein synthesis); assay: Rabbit reticulocyte lysate luciferase assay (inhibition of eukaryotic protein synthesis); assay type: biochemical; settings: read-out: Rabbit reticulocyte IC50 (μM/% inhib.)
How it was run: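 Nuclease-treated rabbit reticulocyte lysate translating luciferase control RNA, with complete amino acids, was incubated at 30° C. for 90 minutes with 2-fold serial compound dilutions. Luminescence was measured after adding luciferase reagent. % inhibition was relative to water controls, with no-RNA wells as background.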

A. baumannii (Ab) = assay: Broth microdilution minimum inhibitory concentration (MIC); assay type: cell-based; settings: Acinetobacter baumannii, read-out: Ab + bicarb MIC
Method: (§1) A certified BSL-2 laboratory was used for testing. Compounds were evaluated using the broth microdilution minimum inhibitory concentration (MIC) and minimum bactericidal concentration (MBC) assays defined by Clinical and Laboratory Standards Institute (CLSI) in the M26-A guideline against S. aureus (Sa), E. coli (Ec), K. pneumoniae (Kp), A. baumannii (Ab), E. faecalis (Ef) and P. aeruginosa (Pa).
(§2) MICs were determined using the Clinical Laboratory and Standards Institute (CLSI) Broth Microdilution Method with slight modification. Clinical and Laboratory Standards Institute (2012). “Methods for dilution antimicrobial susceptibility tests for bacteria that grow aerobically; approved standard, 9th ed. M07-A9. Clinical and Laboratory Standards Institute, Wayne, PA” Serial two-fold dilutions of compounds are prepared in sterile clear round-bottom 96-well plates.
(§3) To prepare microdilution trays, two-fold dilutions of antimicrobial agent are prepared in growth medium: Cation-Adjusted Mueller-Hinton Broth (CAMHB), or CAMHB supplemented with sodium bicarbonate (6.25 or 25 mM final concentration prepared from a 1.0M stock solution) or CAMHB supplemented with heat inactivated human serum (Fisher Cat. #BP2657100) 0-50% by adding 200 μL of the highest concentration to be tested (64 μg/mL, for example) in row A, mixing and transferring 100 μL from row A to 100 μL growth medium in row B, then repeating the mixing and transferring through row H of the 96-well plate, discarding the excess 100 μL remaining. This slight modification to the CLSI protocol enables evaluation of MICs for 3 compounds per plate in triplicate, albeit with only 8 compound dilutions (CLSI protocol enables 2 compounds in triplicate with 10 dilutions). Bacterial suspensions are added to a final concentration of 5×10^4 CFU/well by adding 5 μL of a 1:10 dilution of a 0.5 McFarland suspension (1×10^8 CFU/mL) for each bacterium evaluated. Bacterial suspensions were prepared using the growth method described by CLSI. Well-isolated colonies (3-5 from an agar plate) were selected using a sterile loop and used to inoculate a tube containing 4 mL of CAMHB. The cultures are incubated at 35±2° C. until it achieves or exceeds the turbidity of the 0.5 McFarland standard, determined by measuring A600nm (usually two to six hours). When growth exceeds a 0.5 McFarland standard, the turbidity is adjusted with broth to be equivalent to a 0.5 McFarland standard.

E. coli (Ec) = assay: as above; assay type: cell-based; settings: Escherichia coli, read-out: E. coli + bicarb MIC
Method: as §1, §2, §3

E. faecalis (Ef) = assay: as above; assay type: cell-based; settings: Enterococcus faecalis, read-out: Ef + bicarb MIC
Method: as §1, §2, §3

P. aeruginosa (Pa) = assay: as above; assay type: cell-based; settings: Pseudomonas aeruginosa, read-out: Pa MIC + bicarb
Method: as §1, §2, §3

S. aureus (Sa) = assay: as above; assay type: cell-based; settings: Staphylococcus aureus, read-out: Sa + bicarb MIC
Method: as §1, §2, §3

[3] = class by IC50 or % inhibition @ 1 μM
[4] = A. baumannii, growth medium supplemented with sodium bicarbonate
[5] = E. coli, growth medium supplemented with sodium bicarbonate
[6] = E. faecalis, growth medium supplemented with sodium bicarbonate
[7] = P. aeruginosa, growth medium supplemented with sodium bicarbonate
[8] = S. aureus, growth medium supplemented with sodium bicarbonate

| Compound | IC50 [1, 3] [µM] | IC50 [2, 3] [µM] | MIC (A. baumannii (Ab); [4]) [µg/mL] | MIC (E. coli (Ec); [5]) [µg/mL] | MIC (E. faecalis (Ef); [6]) [µg/mL] | MIC (P. aeruginosa (Pa); [7]) [µg/mL] | MIC (S. aureus (Sa); [8]) [µg/mL] | also measured |
| --- | --- | --- | --- | --- | --- | --- | --- | --- |
| CC(Cc1ccc(-n2ccc(NC(=O)N3CCN(C(=O)C(C)(C)N)CC3)nc2=O)cc1)NC1CCC(CN)CC1 (stereo not shown) [Compound 152] | > 1 | > 1 | > 32 | < 8 | > 32 | > 32 | < 8 |  |
| CC(C)(N)C(=O)N1CCN(C(=O)Nc2ccn(-c3ccc(CCN4CCC[C@@H](CN)C4)cc3)c(=O)n2)CC1 [Compound 25] | 0.5 to 1 | > 1 | > 32 | < 8 | > 32 | > 32 | < 8 |  |
| CCN(C(C)Cc1ccc(-n2ccc(NC(=O)N3CCN(C(=O)C(C)(C)N)CC3)nc2=O)cc1)[C@H]1CC[C@@H](N)C1 (stereo partly shown) [Compound 151] | < 0.5 | > 1 | > 32 | < 8 | < 8 | 8 to 32 | < 8 |  |
| CCN(C[C@H]1C[C@H](N)C1)C(C)Cc1ccc(-n2ccc(NC(=O)N3CCN(C(=O)C(C)(C)N)CC3)nc2=O)cc1 (stereo partly shown) [Compound 158] | < 0.5 | > 1 | > 32 | < 8 | < 8 | 8 to 32 | < 8 |  |
| CC(C)(N)C(=O)N1CCN(C(=O)Nc2ccn(-c3ccc(CN[C@H]4CC[C@H](N)C4)cc3)c(=O)n2)CC1 [Compound 123] | < 0.5 | > 1 | > 32 | < 8 | > 32 | > 32 | < 8 |  |
| CCN(Cc1ccc(-n2ccc(NC(=O)N3CCN(C(=O)C4(N)CCC4)CC3)nc2=O)cc1)C1CCC(N)CC1 (stereo not shown) [Compound 315, hydrochloride salt] | > 1 | > 1 |  |  |  |  |  | MIC (A. baumannii (Ab)): > 32 µg/mL; MIC (E. coli (Ec)): 8 to 32 µg/mL; MIC (E. faecalis (Ef)): > 32 µg/mL; MIC (P. aeruginosa (Pa)): > 32 µg/mL; MIC (S. aureus (Sa)): 8 to 32 µg/mL |
| CC(C)(N)C(=O)N1CCN(C(=O)Nc2ccn(-c3ccc(CCNC4CCCNCC4)cc3)c(=O)n2)CC1 (stereo not shown) [Compound 30] | < 0.5 | > 1 | > 32 | < 8 | > 32 | > 32 | < 8 |  |
| CCN(Cc1ccc(-n2ccc(NC(=O)N3CCN(C(=O)C(C)(C)N)CC3)nc2=O)cc1)[C@@H]1CC[C@H](N)C1 [Compound 116] | < 0.5 | > 1 | > 32 | < 8 | 8 to 32 | > 32 | 8 to 32 |  |
| C[C@H](N)C1CCN(Cc2ccc(-n3ccc(NC(=O)N4CCN(C(=O)C(C)(C)N)CC4)nc3=O)cc2)CC1 [Compound 220] | < 0.5 | > 1 |  |  |  |  |  | MIC (A. baumannii (Ab); A. baumannii, growth medium with sodium bicarbonate): 8 to 32 µg/mL; MIC (E. coli (Ec); E. coli, growth medium with sodium bicarbonate): < 8 µg/mL; MIC (E. faecalis (Ef); E. faecalis, growth medium with sodium bicarbonate): 8 to 32 µg/mL; MIC (P. aeruginosa (Pa); P. aeruginosa, growth medium with sodium bicarbonate): > 32 µg/mL; MIC (S. aureus (Sa); S. aureus, growth medium with sodium bicarbonate): < 8 µg/mL |
| CNC(C)(C)C(=O)N1CCN(C(=O)Nc2ccn(-c3ccc(CN4CCC(N)CC4)cc3)c(=O)n2)CC1 [Compound 96] | > 1 | > 1 |  | < 8 |  | > 32 | < 8 |  |
| CC(N)[C@H]1CCN(CCc2ccc(-n3ccc(NC(=O)N4CCN(C(=O)C(C)(C)N)CC4)nc3=O)cc2)C1 (stereo partly shown) [Compound 42] | < 0.5 | > 1 | > 32 | < 8 | 8 to 32 | 8 to 32 |  |  |
| CC(N)C1CCCN(Cc2ccc(-n3ccc(NC(=O)N4CCN(C(=O)C(C)(C)N)CC4)nc3=O)cc2)C1 (stereo not shown) [Compound 109] | < 0.5 | > 1 |  | < 8 |  | > 32 | < 8 |  |
| CC(C)(N)C(=O)N1C2COCC1CN(C(=O)Nc1ccn(-c3ccc(CN4CCC(N)CC4)cc3)c(=O)n1)C2 [Compound 68] | 0.5 to 1 | > 1 |  | < 8 |  | > 32 | > 32 |  |
| CC(N)C1CCCN(CCc2ccc(-n3ccc(NC(=O)N4CCN(C(=O)C(C)(C)N)CC4)nc3=O)cc2)C1 (stereo not shown) [Compound 22] | < 0.5 | > 1 |  | < 8 |  | > 32 | < 8 |  |
| C[C@H]1CN(Cc2ccc(-n3ccc(NC(=O)N4CCN(C(=O)C(C)(C)N)CC4)nc3=O)cc2)CC[C@H]1N (stereo in doubt) [Compound 297, hydrochloride salt] | 0.5 to 1 | > 1 |  |  |  |  |  | MIC (E. coli (Ec)): < 8 µg/mL; MIC (E. faecalis (Ef)): 8 to 32 µg/mL; MIC (P. aeruginosa (Pa)): > 32 µg/mL; MIC (S. aureus (Sa)): < 8 µg/mL |
| C[C@](N)(CO)C(=O)N1CCN(C(=O)Nc2ccn(-c3ccc(CN4CCC(N)CC4)c(Cl)c3)c(=O)n2)CC1 [Compound 98] | < 0.5 | > 1 |  | < 8 |  | > 32 | < 8 |  |
| C[C@](N)(CO)C(=O)N1CCN(C(=O)Nc2ccn(-c3ccc(CCN4CCC(NC(=N)N)CC4)cc3)c(=O)n2)CC1 [Compound 349, hydrochloride salt] |  |  |  |  |  |  |  | IC50 ([1]; % inhibition @ 1 μM): < 0.5 µM; IC50 ([2]; % inhibition @ 1 μM): 0.5 to 1 µM; MIC (E. coli (Ec)): < 8 µg/mL; MIC (S. aureus (Sa)): 8 to 32 µg/mL |
| CC(C)(N)C(=O)N1CC2COCC(C1)N2C(=O)Nc1ccn(-c2ccc(CN3CCC(N)CC3)cc2)c(=O)n1 [Compound 85] | > 1 | > 1 |  | < 8 |  | > 32 | > 32 |  |
